Experimental data published in US9066948B2, “Oxadiazolo[3,2-a]pyrimidines and thiadiazolo[3,2-a]pyrimidines” (THE UNITED STATES OF AMERICA AS REPRESENTED BY THE …, priority 2010, dated 2015).

Target: T1, purified αIIbβ3 (Homo sapiens, UniProt P05106+P08514)
T1 construct: αIIbβ3 is purified from outdated single donor platelet concentrates obtained from the New York Blood Center; tissue New York Blood Center; host or cells: outdated single donor platelet concentrates
Test: Extension of purified αIIbβ3 in nanodiscs by negative staining electron microscopy
Details: concentrations up to 10 μM
Method: In brief, the His-tagged membrane scaffold protein is prepared as a recombinant protein in E. coli and purified by Nickel affinity chromatography and anion exchange chromatography. Final assembly consists of solubilizing an equimolar mixture of 1,2-dimyristoyl-sn-glycero-3-phosphocholine and 1,2-dimyristoyl-sn-glycero-3-phospho-(1′-rac-glycerol) in octylglucoside and cholate and then adding the purified αIIbβ3. The detergents are removed with macroporous polymeric beads (Bio-Bead SM-2) and then the αIIbβ3 nanodiscs are separated from the empty nanodiscs by gel filtration.
αIIbβ3 nanodiscs are treated with eptifibatide, tirofiban, 2-ethyl-7-(piperazin-1-yl)-5H-[1,3,4]thiadiazolo-[3,2-a]pyrimidin-5-one of U.S. Ser. No. 12/514,286, or the compound of Example 27 of the current invention for 1 hour at room temperature at concentrations up to 100 μM for 2-ethyl-7-(piperazin-1-yl)-5H-[1,3,4]thiadiazolo-[3,2-a]pyrimidin-5-one (a compound claimed in U.S. Ser. No. 12/514,286) and at concentrations up to 10 μM for 2-amino-N-(3-(5-oxo-7-(piperazin-1-yl)-5H-[1,3,4]thiadiazolo[3,2-a]pyrimidin-2-yl)phenyl)acetamide of Example 27. Samples are loaded onto carbon-coated copper grids that are glow-discharged by a carbon coating unit (Edwards; Crowley, UK), and then stained with 2% uranyl acetate, followed by drying. Imaging of αIIbβ3 nanodiscs is performed using a JOEL JEM 100CX transmission electron microscope (Jeol Ltd; Tokyo, Japan) at 80 kV and magnifications of 33,000× and 50,000×. Individual nanodiscs containing αIIbβ3 are manually selected for analysis using Image J (NIH, Bethesda, Md.). The distance from the bottom of the nanodisc to the height of the αIIbβ3 complex (nanodisc-integrin length; NIL) is measured as an indicator of integrin extension. The frequency distribution of NIL values is then analyzed for untreated αIIbβ3 nanodiscs and αIIbβ3 nanodiscs in the presence of different compounds.

T1 sequence (P08514 32-887 limits assumed): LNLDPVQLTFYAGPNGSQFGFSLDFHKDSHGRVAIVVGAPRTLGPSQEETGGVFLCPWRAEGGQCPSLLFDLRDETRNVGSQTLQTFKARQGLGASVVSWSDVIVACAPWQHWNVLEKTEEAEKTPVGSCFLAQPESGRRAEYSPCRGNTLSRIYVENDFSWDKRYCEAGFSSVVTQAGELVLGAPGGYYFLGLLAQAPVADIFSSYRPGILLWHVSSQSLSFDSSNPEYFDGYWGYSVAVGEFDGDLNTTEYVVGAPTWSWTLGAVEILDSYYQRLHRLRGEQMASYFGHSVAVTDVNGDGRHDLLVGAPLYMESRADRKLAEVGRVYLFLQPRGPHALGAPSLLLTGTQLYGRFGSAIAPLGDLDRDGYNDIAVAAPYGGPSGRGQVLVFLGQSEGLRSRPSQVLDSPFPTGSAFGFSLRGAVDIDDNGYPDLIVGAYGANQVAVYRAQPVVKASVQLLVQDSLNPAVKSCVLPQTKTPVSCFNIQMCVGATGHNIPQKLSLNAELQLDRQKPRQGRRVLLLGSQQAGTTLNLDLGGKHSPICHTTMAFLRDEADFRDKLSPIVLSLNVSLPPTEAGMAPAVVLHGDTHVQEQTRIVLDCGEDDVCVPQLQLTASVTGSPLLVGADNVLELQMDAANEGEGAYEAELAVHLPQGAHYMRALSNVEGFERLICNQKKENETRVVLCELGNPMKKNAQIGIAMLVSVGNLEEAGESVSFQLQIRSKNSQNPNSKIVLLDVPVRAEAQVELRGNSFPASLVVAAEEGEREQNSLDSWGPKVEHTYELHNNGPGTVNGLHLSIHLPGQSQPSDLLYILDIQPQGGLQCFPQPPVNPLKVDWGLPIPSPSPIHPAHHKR
T1 sequence (P08514 891-1039 partner limits assumed): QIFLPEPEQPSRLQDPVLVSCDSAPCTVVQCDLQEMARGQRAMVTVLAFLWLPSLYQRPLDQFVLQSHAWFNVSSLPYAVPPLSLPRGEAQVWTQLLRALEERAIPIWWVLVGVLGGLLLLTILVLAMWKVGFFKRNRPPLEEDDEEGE
T1 sequence (P05106 27-788): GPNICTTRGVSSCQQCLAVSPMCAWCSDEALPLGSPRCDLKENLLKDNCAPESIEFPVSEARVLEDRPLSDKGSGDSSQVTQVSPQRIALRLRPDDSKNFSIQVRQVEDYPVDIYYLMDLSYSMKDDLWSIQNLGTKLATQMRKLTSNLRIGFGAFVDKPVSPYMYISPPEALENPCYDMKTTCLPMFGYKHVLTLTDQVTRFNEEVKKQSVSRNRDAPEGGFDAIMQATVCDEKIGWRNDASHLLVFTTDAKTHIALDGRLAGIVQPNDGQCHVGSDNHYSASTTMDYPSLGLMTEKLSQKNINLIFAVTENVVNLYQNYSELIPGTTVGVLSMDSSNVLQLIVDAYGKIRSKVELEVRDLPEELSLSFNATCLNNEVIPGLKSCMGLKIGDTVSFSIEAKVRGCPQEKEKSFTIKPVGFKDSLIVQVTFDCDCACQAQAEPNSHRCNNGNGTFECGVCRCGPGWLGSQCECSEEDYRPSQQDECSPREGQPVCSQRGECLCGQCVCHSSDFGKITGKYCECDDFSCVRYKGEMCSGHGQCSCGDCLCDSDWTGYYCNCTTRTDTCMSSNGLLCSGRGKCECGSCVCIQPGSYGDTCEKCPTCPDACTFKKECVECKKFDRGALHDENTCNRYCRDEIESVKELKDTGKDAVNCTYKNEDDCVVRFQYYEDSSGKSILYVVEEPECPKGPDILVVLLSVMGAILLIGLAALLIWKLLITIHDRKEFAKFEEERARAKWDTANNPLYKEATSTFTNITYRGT

For `NCC(=O)Nc1cccc(-c2nn3c(=O)cc(N4CCNCC4)nc3s2)c1` [Example 27, 2-amino-N-(3-(5-oxo-7-(piperazin-1-yl)-5H-[1,3,4]thiadiazolo[3,2-a]pyrimidin-2-yl)phenyl)acetamide], the “shift of nanodisc-integrin length (NIL) values / receptor extension” value was “do not induce receptor extension”.
